Laboratory results: patent US8916551B2, “Heterocyclic compound and use thereof” (Takeda Pharmaceutical Company Limited, priority 2010, dated 2014)
Where a name gives a salt, the structure may show the parent alone.

The compounds below were run against T1, AMPA receptor (human GluR1 flip/stargazin expressed in CHO-K1 cells) (Homo sapiens, UniProt P42261) (assay: AMPA receptor function enhancing activity using calcium influx as index). Conditions: test compound 30 μM with glutamic acid final 3 mM, change in fluorescence in 3 min, 100% = 3 mM glutamic acid + 300 μM cyclothiazide, 0% = 3 mM glutamic acid only.
T1 construct: expressed in transfected cells; host or cells: CHO-K1
Assay type: cell-based
How it was run: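 CHO-K1 clone stably co-expressing human GluR1 flip and stargazin, loaded with Calcium 4 dye plus probenecid. Compound at 30 μM was added with glutamate (3 mM final) and fluorescence change followed over 3 min. Activity is expressed as % of the 3 mM glutamate plus 300 μM cyclothiazide response, with glutamate alone as 0%.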

T1 sequence (P42261 19-906 isoform P42261-2 limits assumed): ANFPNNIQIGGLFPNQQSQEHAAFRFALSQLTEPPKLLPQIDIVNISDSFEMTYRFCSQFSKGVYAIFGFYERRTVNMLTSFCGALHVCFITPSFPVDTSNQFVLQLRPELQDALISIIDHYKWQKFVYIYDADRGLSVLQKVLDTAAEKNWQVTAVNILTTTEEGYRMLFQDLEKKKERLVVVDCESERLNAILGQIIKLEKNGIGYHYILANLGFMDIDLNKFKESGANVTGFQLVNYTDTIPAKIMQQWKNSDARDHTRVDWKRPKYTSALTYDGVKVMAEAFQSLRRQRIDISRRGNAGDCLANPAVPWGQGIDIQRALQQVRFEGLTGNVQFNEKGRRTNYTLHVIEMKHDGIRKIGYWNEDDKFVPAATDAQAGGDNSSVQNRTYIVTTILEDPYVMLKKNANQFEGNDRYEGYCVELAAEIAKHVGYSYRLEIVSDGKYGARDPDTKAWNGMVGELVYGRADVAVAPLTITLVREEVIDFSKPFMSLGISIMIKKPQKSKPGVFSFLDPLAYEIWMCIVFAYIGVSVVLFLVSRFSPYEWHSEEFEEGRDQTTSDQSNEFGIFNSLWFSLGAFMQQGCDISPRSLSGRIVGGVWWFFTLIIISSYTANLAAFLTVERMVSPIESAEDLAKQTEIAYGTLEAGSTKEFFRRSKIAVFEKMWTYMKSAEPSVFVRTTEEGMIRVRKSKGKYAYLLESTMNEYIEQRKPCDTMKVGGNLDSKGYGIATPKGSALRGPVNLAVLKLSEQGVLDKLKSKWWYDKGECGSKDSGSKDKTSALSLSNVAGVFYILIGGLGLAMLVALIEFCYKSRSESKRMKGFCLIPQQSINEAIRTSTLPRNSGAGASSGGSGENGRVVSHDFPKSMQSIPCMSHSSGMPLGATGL
T1 sequence (Q9Y698 whole entry partner): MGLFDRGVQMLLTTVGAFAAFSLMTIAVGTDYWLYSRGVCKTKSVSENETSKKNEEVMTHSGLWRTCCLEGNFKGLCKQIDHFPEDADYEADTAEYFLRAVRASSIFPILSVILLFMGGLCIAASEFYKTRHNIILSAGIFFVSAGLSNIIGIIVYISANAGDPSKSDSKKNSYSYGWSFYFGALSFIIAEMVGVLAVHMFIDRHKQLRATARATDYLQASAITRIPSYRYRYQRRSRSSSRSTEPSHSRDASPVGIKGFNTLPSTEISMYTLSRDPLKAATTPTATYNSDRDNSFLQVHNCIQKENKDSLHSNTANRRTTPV

Row | Structure (SMILES) | activity (%)
1 | O=S1(=O)CCN2C=CC=C(c3ccc(-n4nc(C(F)(F)F)cc4C4CC4)cc3)C2=N1 [Example 299, 9-{4-[5-cyclopropyl-3-(trifluoromethyl)-1H-pyrazol-1-yl]phenyl}-3,4-dihydropyrido[2,1-c][1,2,4]thiadiazine 2,2-dioxide] | 88
2 | Cc1cc(C(F)(F)F)nn1-c1ccc(C2=CC=CN3CCS(=O)(=O)N=C23)cc1 [Example 300, 9-{4-[5-methyl-3-(trifluoromethyl)-1H-pyrazol-1-yl]phenyl}-3,4-dihydropyrido[2,1-c][1,2,4]thiadiazine 2,2-dioxide] | 93
3 | O=S1(=O)CCN2CCCC(c3ccc(-n4nc(C(F)(F)F)cc4C4CC4)cc3)C2=N1 (stereo not drawn) [Example 301, 9-{4-[5-cyclopropyl-3-(trifluoromethyl)-1H-pyrazol-1-yl]phenyl}-3,4,6,7,8,9-hexahydropyrido[2,1-c][1,2,4]thiadiazine 2,2-dioxide] | 76
4 | O=S1(=O)CCN2CCCC(COc3ccc4c(c3)CCCC4)C2=N1 (stereo not drawn) [Example 303, 9-[(5,6,7,8-tetrahydronaphthalen-2-yloxy)methyl]-3,4,6,7,8,9-hexahydropyrido[2,1-c][1,2,4]thiadiazine 2,2-dioxide] | 82
5 | O=C(c1ccccc1)c1ccc(C2CCCN3CCS(=O)(=O)N=C23)cc1 (stereo not drawn) [Example 304, [4-(2,2-dioxido-3,4,6,7,8,9-hexahydropyrido[2,1-c][1,2,4]thiadiazin-9-yl)phenyl](phenyl)methanone] | 87
6 | COc1cccc(C(=O)c2ccc(C3=CC=CN4CCS(=O)(=O)N=C34)cc2)c1 [Example 306, [4-(2,2-dioxido-3,4-dihydropyrido[2,1-c][1,2,4]thiadiazin-9-yl)phenyl](3-methoxyphenyl)methanone] | 89
7 | O=S1(=O)CCN2C=CC=C(c3ccc(Oc4ccc5c(c4)OCC5)cc3)C2=N1 [Example 313, 9-[4-(2,3-dihydro-1-benzofuran-6-yloxy)phenyl]-3,4-dihydropyrido[2,1-c][1,2,4]thiadiazine 2,2-dioxide] | 95
8 | COc1cc(Oc2ccc(C3=CC=CN4CCS(=O)(=O)N=C34)cc2)ccc1F [Example 316, 9-[4-(4-fluoro-3-methoxyphenoxy)phenyl]-3,4-dihydropyrido[2,1-c][1,2,4]thiadiazine 2,2-dioxide] | 89
9 | O=S1(=O)CCN2CCCC(c3ccc(C4(c5ccccc5)CCC4)cc3)C2=N1 (stereo not drawn) [Example 321, 9-[4-(1-phenylcyclobutyl)phenyl]-3,4,6,7,8,9-hexahydropyrido[2,1-c][1,2,4]thiadiazine 2,2-dioxide] | 64
10 | CC(F)(F)c1ccc(Oc2ccc(C3=CC=CN4CCS(=O)(=O)N=C34)cc2)cc1 [Example 323, 9-{4-[4-(1,1-difluoroethyl)phenoxy]phenyl}-3,4-dihydropyrido[2,1-c][1,2,4]thiadiazine 2,2-dioxide] | 85
11 | Cc1ccc(Cc2ccc(C3CCCN4CCS(=O)(=O)N=C34)cc2)cc1 (stereo not drawn) [Example 324, 9-[4-(4-methylbenzyl)phenyl]-3,4,6,7,8,9-hexahydropyrido[2,1-c][1,2,4]thiadiazine 2,2-dioxide] | 63
12 | CC(C)(c1ccccc1)c1ccc(C2=CC=CN3CCS(=O)(=O)N=C23)cc1 [Example 325, 9-[4-(1-methyl-1-phenylethyl)phenyl]-3,4-dihydropyrido[2,1-c][1,2,4]thiadiazine 2,2-dioxide] | 99
13 | Cc1ccc(C(C)(C)c2ccc(C3=CC=CN4CCS(=O)(=O)N=C34)cc2)cc1 [Example 329, 9-{4-[1-methyl-1-(4-methylphenyl)ethyl]phenyl}-3,4-dihydropyrido[2,1-c][1,2,4]thiadiazine 2,2-dioxide] | 82
14 | O=S1(=O)CCN2C=CN=C(c3ccc(-c4ccccc4)c(F)c3)C2=N1 [Example 344, 9-(2-fluorobiphenyl-4-yl)-3,4-dihydropyrazino[2,1-c][1,2,4]thiadiazine 2,2-dioxide] | 74
15 | O=S1(=O)CCN2CCNC(c3ccc(-c4ccccc4)c(F)c3)C2=N1 (stereo not drawn) [Example 345, 9-(2-fluorobiphenyl-4-yl)-3,4,6,7,8,9-hexahydropyrazino[2,1-c][1,2,4]thiadiazine 2,2-dioxide] | 63
16 | O=S1(=O)CCN2CCCC(c3ccc(Oc4ccccc4)c(F)c3)C2=N1 (stereo not drawn) [Example 347, 9-(3-fluoro-4-phenoxyphenyl)-3,4,6,7,8,9-hexahydropyrido[2,1-c][1,2,4]thiadiazine 2,2-dioxide] | 76
17 | [2H]C1(c2ccc(-c3ccccc3)c(F)c2)NCCN2CCS(=O)(=O)N=C21 (stereo not drawn) [Example 348, 9-(2-fluorobiphenyl-4-yl)(9-^2H)-3,4,6,7,8,9-hexahydropyrazino[2,1-c][1,2,4]thiadiazine 2,2-dioxide Hydrochloride] | 64
18 | CCCOc1ccc(C2=CC=CN3CCS(=O)(=O)N=C23)cc1F [Example 349, 9-(3-fluoro-4-propoxyphenyl)-3,4-dihydropyrido[2,1-c][1,2,4]thiadiazine 2,2-dioxide] | 83
19 | CCCOc1ccc(C2CCCN3CCS(=O)(=O)N=C23)cc1F (stereo not drawn) [Example 350, 9-(3-fluoro-4-propoxyphenyl)-3,4,6,7,8,9-hexahydropyrido[2,1-c][1,2,4]thiadiazine 2,2-dioxide] | 74
20 | CCCCOc1ccc(C2CCCN3CCS(=O)(=O)N=C23)cc1F (stereo not drawn) [Example 352, 9-(4-butoxy-3-fluorophenyl)-3,4,6,7,8,9-hexahydropyrido[2,1-c][1,2,4]thiadiazine 2,2-dioxide] | 76
21 | O=S1(=O)CCN2CCCC(c3ccc(Oc4ccc(F)cc4)cc3)C2=N1 (stereo not drawn) [Example 357, 9-[4-(4-fluorophenoxy)phenyl]-3,4,6,7,8,9-hexahydropyrido[2,1-c][1,2,4]thiadiazine 2,2-dioxide] | 77
22 | CC(C)Oc1ccc(C2=CC=CN3CCS(=O)(=O)N=C23)cc1F [Example 361, 9-[3-fluoro-4-(1-methylethoxy)phenyl]-3,4-dihydropyrido[2,1-c][1,2,4]thiadiazine 2,2-dioxide] | 85
23 | O=S1(=O)CCN2C=CC=C(c3ccc(C4(F)COC4)cc3)C2=N1 [Example 396, 9-[4-(3-fluorooxetan-3-yl)phenyl]-3,4-dihydropyrido[2,1-c][1,2,4]thiadiazine 2,2-dioxide] | 82
24 | O=S1(=O)CCN2C=CC=C(c3ccc(N4CCOCC4)cc3)C2=N1 [Example 397, 9-(4-morpholin-4-ylphenyl)-3,4-dihydropyrido[2,1-c][1,2,4]thiadiazine 2,2-dioxide] | 83
25 | CC(=O)c1ccc(C2=CC=CN3CCS(=O)(=O)N=C23)cc1 [Example 400, 1-[4-(2,2-dioxido-3,4-dihydropyrido[2,1-c][1,2,4]thiadiazin-9-yl)phenyl]ethanone] | 83
26 | CSc1ccc(C2=CC=CN3CCS(=O)(=O)N=C23)cc1 [Example 408, 9-[4-(methylsulfanyl)phenyl]-3,4-dihydropyrido[2,1-c][1,2,4]thiadiazine 2,2-dioxide] | 85
27 | CC(C)(C)Oc1ccc(C2=CC=CN3CCS(=O)(=O)N=C23)cc1 [Example 411, 9-(4-tert-butoxyphenyl)-3,4-dihydropyrido[2,1-c][1,2,4]thiadiazine 2,2-dioxide] | 86
